Laboratory results reported in ChEMBL document CHEMBL5154936, “Scaffold Hopping Strategy to Identify Prostanoid EP4 Receptor Antagonists for Cancer Immunotherapy” (J Med Chem, 2022).
pIC50: −log10 of the molar value.

Assays:
[1] = target: Prostaglandin E2 receptor EP4 subtype (Homo sapiens, UniProt P35408); test: Antagonist activity at human EP4 receptor transfected in CHO/Galpha16 cells preincubated for 15 mins followed by PGE2 addition by calcium flux assay; type: functional, cell-based
[2] = target: Prostaglandin E2 receptor EP2 subtype (Homo sapiens, UniProt P43116); test: Antagonist activity at human EP2 receptor transfected in CHO/Galpha16 cells preincubated for 15 mins followed by PGE2 addition by calcium flux assay; type: functional, cell-based
Chain of Prostaglandin E2 receptor EP2 subtype (P43116 whole entry): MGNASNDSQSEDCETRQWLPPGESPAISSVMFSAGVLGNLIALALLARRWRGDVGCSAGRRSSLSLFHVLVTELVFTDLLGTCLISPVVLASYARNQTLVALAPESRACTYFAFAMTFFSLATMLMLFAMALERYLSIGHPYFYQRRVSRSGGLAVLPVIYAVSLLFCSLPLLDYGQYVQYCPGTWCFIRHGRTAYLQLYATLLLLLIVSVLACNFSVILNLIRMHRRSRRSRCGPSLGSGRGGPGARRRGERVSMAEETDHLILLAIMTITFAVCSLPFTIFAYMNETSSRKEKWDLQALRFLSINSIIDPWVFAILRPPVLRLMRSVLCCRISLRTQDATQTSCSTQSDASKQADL

[3] = target: T1, Prostaglandin E2 receptor EP1 subtype (Homo sapiens, UniProt P34995); test: Antagonist activity at human EP1 receptor transfected in CHO/Galpha16 cells preincubated for 15 mins followed by PGE2 addition by calcium flux assay; type: functional, cell-based
T1 sequence (P34995 whole entry): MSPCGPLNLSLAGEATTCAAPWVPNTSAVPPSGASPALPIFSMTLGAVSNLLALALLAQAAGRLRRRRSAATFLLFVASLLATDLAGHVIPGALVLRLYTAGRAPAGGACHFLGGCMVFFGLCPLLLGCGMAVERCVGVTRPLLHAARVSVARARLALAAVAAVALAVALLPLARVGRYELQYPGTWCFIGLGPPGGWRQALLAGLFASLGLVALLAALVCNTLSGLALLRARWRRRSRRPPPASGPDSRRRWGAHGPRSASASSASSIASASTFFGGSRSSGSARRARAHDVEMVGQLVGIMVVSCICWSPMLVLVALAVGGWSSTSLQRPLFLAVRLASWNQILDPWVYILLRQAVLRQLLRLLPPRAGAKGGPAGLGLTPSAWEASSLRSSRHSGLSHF

[4] = target: T2, Prostaglandin E2 receptor EP3 subtype (Homo sapiens, UniProt P43115); test: Antagonist activity at human EP3 receptor transfected in CHO/Galpha16 cells preincubated for 15 mins followed by PGE2 addition by calcium flux assay; type: functional, cell-based
T2 sequence (P43115 whole entry): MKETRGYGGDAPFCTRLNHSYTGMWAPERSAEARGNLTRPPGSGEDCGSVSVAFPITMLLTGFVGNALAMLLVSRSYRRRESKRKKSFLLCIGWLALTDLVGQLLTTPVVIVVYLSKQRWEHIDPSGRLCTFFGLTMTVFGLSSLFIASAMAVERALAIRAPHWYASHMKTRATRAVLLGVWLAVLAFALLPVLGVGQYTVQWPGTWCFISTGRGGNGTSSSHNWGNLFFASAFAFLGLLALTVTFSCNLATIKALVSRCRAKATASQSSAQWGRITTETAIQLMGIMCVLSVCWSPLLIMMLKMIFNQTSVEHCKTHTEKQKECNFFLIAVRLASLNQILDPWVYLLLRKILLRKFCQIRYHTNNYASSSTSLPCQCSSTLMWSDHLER

CT26 = test: Cytotoxicity against mouse CT26 cells assessed as reduction in cell viability incubated for 72 hrs by CCK-8 assay; conditions: CT26, 72 h
Panc02 = test: Cytotoxicity against mouse Panc02 cells assessed as reduction in cell viability incubated for 72 hrs by CCK-8 assay; conditions: Panc02, 72 h
[5] = Metabolic stability in mouse liver microsomes assessed as half life; type: ADME, Microsome
EMT6 = test: Cytotoxicity against mouse EMT6 cells assessed as reduction in cell viability incubated for 72 hrs by CCK-8 assay; conditions: EMT6, 72 h
[6] = Metabolic stability in human liver microsomes assessed as parent compound remaining at 10 uM measured after 60 mins; type: ADME, Microsome; conditions: read-out: Stability
CYP2B6 = target: T3, CYP2B6 (Homo sapiens, UniProt P20813); test: Inhibition of CYP2B6 (unknown origin) at 20 uM; type: ADME
T3 sequence (P20813 whole entry): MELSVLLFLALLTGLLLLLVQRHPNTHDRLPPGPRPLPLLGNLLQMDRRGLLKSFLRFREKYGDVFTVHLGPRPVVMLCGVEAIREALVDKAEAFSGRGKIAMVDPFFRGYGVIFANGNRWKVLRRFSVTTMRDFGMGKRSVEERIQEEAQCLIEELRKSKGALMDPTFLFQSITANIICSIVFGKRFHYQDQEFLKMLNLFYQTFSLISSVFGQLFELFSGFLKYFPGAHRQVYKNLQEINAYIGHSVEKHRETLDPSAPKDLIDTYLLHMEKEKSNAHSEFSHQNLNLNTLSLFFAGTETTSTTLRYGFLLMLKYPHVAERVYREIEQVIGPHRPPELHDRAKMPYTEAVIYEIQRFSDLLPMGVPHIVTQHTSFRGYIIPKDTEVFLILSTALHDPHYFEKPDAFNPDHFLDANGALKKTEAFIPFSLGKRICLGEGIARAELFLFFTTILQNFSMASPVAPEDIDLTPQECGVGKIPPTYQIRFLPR

CYP2C9 = CYP2C9 (Homo sapiens, UniProt P11712); test: Inhibition of CYP2C9 (unknown origin) at 20 uM; type: ADME
Chain of CYP2C9 (P11712 whole entry): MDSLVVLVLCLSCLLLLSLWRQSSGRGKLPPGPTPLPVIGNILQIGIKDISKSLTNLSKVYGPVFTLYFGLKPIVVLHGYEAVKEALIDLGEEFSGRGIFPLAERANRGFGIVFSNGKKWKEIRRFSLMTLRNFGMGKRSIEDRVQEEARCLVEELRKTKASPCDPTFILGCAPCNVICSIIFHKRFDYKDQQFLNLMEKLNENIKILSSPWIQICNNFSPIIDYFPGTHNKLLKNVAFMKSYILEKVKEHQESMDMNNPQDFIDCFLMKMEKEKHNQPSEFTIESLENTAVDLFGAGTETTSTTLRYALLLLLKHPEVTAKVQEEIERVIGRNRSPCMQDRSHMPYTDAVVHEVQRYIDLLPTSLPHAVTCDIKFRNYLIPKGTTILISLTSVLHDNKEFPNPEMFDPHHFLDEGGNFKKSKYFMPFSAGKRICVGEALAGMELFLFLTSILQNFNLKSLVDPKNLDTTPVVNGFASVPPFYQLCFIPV

CYP2E1 = CYP2E1 (Homo sapiens, UniProt P05181); test: Inhibition of CYP2E1 (unknown origin) at 20 uM; type: ADME
Chain of CYP2E1 (P05181 whole entry): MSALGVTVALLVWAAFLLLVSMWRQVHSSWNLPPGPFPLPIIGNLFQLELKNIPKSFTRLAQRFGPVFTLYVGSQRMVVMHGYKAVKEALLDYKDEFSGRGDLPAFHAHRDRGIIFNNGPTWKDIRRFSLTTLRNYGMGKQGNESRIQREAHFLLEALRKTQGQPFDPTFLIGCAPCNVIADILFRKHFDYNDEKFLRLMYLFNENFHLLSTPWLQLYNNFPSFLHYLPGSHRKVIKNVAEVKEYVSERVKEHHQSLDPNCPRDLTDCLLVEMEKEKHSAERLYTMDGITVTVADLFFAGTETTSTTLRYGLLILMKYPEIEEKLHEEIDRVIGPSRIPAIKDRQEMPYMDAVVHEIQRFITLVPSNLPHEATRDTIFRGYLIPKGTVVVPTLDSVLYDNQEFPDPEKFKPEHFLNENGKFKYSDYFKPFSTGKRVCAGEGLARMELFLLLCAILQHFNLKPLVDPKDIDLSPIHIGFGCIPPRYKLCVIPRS

[7] = Metabolic stability in mouse liver microsomes assessed as intrinsic clearance; type: ADME, Microsome; conditions: read-out: CLH
[8] = Cytotoxicity against HEK293 cells assessed as reduction in cell viability incubated for 72 hrs by CCK-8 assay; type: toxicity, cell-based; conditions: human
[9] = target: Prostaglandin E2 receptor EP4 subtype (Mus musculus, UniProt P32240); test: Antagonist activity at mouse EP4 receptor transfected in CHO/Galpha16 cells preincubated for 15 mins followed by PGE2 addition by calcium flux assay; type: functional, cell-based
Chain of Prostaglandin E2 receptor EP4 subtype (Mus musculus, UniProt P32240) (P32240 whole entry): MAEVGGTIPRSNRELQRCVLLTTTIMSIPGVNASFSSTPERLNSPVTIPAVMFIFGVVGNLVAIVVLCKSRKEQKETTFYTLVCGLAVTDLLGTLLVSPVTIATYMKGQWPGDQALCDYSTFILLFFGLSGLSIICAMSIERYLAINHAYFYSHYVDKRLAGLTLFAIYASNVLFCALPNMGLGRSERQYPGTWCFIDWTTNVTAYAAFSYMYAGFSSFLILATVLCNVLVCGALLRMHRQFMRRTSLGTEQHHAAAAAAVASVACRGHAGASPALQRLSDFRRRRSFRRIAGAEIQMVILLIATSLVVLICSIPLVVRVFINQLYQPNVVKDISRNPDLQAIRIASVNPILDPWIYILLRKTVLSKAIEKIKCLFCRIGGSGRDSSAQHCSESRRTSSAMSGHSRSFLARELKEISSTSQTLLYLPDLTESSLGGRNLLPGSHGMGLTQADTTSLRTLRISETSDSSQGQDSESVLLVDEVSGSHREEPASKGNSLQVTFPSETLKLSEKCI

CYP1A2 = target: T4, CYP1A2 (Homo sapiens, UniProt P05177); test: Inhibition of CYP1A2 (unknown origin) at 20 uM; type: ADME
T4 sequence (P05177 whole entry): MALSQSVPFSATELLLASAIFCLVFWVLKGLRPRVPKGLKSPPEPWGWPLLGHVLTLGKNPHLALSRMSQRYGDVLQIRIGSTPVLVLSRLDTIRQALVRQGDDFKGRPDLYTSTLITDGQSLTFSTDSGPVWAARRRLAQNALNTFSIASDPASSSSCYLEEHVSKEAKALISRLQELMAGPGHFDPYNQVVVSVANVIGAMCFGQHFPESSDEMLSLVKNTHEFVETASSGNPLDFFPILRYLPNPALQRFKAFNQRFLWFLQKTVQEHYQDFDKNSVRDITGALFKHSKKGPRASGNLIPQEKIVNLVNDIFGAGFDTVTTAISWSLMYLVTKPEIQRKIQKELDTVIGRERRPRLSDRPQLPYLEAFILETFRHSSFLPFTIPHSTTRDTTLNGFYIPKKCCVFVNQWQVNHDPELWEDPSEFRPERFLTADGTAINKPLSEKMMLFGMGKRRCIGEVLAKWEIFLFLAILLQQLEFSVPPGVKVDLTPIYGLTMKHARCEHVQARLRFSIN

[10] = Metabolic stability in human liver microsomes assessed as intrinsic clearance; type: ADME, Microsome; conditions: read-out: CLH
3LL cell line = test: Cytotoxicity against mouse 3LL cells assessed as reduction in cell viability incubated for 72 hrs by CCK-8 assay
[11] = Metabolic stability in mouse liver microsomes assessed as parent compound remaining at 10 uM measured after 60 mins; type: ADME, Microsome; conditions: read-out: Stability
CYP2D6 = CYP2D6 (Homo sapiens, UniProt P10635); test: Inhibition of CYP2D6 (unknown origin) at 20 uM; type: ADME
Chain of CYP2D6 (P10635 whole entry): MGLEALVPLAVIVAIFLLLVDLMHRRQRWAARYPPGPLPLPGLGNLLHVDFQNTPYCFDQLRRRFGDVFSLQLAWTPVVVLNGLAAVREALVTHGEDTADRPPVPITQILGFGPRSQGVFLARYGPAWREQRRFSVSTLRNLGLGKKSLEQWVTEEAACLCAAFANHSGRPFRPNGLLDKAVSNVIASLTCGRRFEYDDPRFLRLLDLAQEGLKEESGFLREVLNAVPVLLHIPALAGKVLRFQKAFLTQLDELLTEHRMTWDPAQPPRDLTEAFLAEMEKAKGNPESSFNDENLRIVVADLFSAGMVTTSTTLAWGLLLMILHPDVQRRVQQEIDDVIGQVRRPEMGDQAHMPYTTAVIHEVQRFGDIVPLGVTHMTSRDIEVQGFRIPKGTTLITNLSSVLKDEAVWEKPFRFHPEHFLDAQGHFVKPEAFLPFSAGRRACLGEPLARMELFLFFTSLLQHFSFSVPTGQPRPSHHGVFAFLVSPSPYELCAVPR

[12] = Metabolic stability in human liver microsomes assessed as half life; type: ADME, Microsome

Chain of Prostaglandin E2 receptor EP4 subtype (Homo sapiens, UniProt P35408) (P35408 whole entry): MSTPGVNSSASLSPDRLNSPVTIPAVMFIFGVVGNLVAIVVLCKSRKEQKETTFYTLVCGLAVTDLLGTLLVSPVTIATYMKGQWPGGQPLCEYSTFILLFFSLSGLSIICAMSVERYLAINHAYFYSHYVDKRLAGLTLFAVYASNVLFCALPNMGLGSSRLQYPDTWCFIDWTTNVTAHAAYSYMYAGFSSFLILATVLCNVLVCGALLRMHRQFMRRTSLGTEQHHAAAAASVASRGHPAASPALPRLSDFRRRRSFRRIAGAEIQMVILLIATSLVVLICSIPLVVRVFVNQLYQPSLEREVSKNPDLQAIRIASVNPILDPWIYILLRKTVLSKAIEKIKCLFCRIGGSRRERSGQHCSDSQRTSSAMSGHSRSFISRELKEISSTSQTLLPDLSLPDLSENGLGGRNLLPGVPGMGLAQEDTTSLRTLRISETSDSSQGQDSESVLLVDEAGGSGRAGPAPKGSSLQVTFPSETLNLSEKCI

Structure (SMILES): C[C@H](NC(=O)c1c(Cc2cccc(Cl)c2)sc2c1CCOC2)c1ccc(C(=O)O)cc1
- pIC50 [1]: 8.49

Structure (SMILES): COc1ccc(Cc2sc3c(c2C(=O)N[C@@H](C)c2ccc(C(=O)O)cc2)CCOC3)cc1
- pIC50 [2]: < 5.00
- pIC50 [3]: < 5.00
- pIC50 [4]: < 5.00
- pIC50 [1]: 8.68

Structure (SMILES): C[C@H](NC(=O)c1c(CCc2ccc(F)cc2)sc2c1CCOC2)c1ccc(C(=O)O)cc1
- pIC50 [2]: < 5.00
- pIC50 (CT26): < 4.00
- pIC50 (Panc02): < 4.00
- half-life [5]: > 145 min
- pIC50 (EMT6): < 4.00
- pIC50 [3]: < 5.00
- remaining at 1 h, 10 µM [6]: 40.7%
- inhibition at 20 µM (CYP2B6): 76%
- pIC50 [4]: < 5.00
- inhibition at 20 µM (CYP2C9): 58%
- inhibition at 20 µM (CYP2E1): 39%
- microsomal CLint [7]: < 9.6 µL/min/mg
- IC50 at 72 h [8]: > 100000 nM
- pIC50 [9]: 7.30
- pIC50 [1]: 7.72
- inhibition at 20 µM (CYP1A2): 88%
- microsomal CLint [10]: 28.5 µL/min/mg
- pIC50 (3LL cell line): < 4.00
- remaining at 1 h, 10 µM [11]: 75.7%
- inhibition at 20 µM (CYP2D6): 76%
- half-life [12]: 48.6 min

Structure (SMILES): CC(=O)N1CCc2c(sc(CCc3ccc(F)cc3)c2C(=O)N[C@@H](C)c2ccc(C(=O)O)cc2)C1
- pIC50 [1]: < 6.00

Structure (SMILES): C[C@H](NC(=O)c1c(Cc2ccc(C(C)(C)C)cc2)sc2c1CCOC2)c1ccc(C(=O)O)cc1
- pIC50 [1]: 8.02

Structure (SMILES): C[C@H](NC(=O)c1c(CCc2ccc(F)cc2)sc2c1CCCC2)c1ccc(C(=O)O)cc1
- remaining at 1 h, 10 µM [6]: 5%
- pIC50 [9]: 7.54
- pIC50 [1]: 7.56
- microsomal CLint [10]: 97.6 µL/min/mg
- half-life [12]: 14 min

Structure (SMILES): C[C@H](NC(=O)c1c(NCc2ccc(C(F)(F)F)cc2)sc2c1CCOC2)c1ccc(C(=O)O)cc1
- pIC50 [2]: < 5.00
- pIC50 [3]: < 5.00
- pIC50 [4]: < 5.00
- pIC50 [9]: 7.18
- pIC50 [1]: 7.48

Structure (SMILES): C[C@H](NC(=O)c1c(C#Cc2ccc(=O)[nH]c2)sc2c1CCOC2)c1ccc(C(=O)O)cc1
- pIC50 [1]: 6.19

Structure (SMILES): C[C@H](NC(=O)c1c(CCc2ccc(F)cc2)sc2c1CCC2)c1ccc(C(=O)O)cc1
- pIC50 [2]: < 5.00
- half-life [5]: 16.1 min
- pIC50 [3]: < 5.00
- remaining at 1 h, 10 µM [6]: 12.2%
- pIC50 [4]: < 5.00
- microsomal CLint [7]: 86.1 µL/min/mg
- pIC50 [9]: 7.70
- microsomal CLint [10]: 221 µL/min/mg
- remaining at 1 h, 10 µM [11]: 6.8%
- half-life [12]: 6.3 min

Structure (SMILES): C[C@H](NC(=O)c1c(CCc2ccc(F)cc2)sc2c1CC(C)(C)OC2)c1ccc(C(=O)O)cc1
- pIC50 [1]: 7.44

Structure (SMILES): C[C@H](NC(=O)c1c(Cc2ccc(C(F)(F)F)cc2)sc2c1CCOC2)c1ccc(C(=O)O)cc1
- pIC50 [2]: < 5.00
- pIC50 (CT26): < 4.00
- pIC50 (Panc02): < 4.00
- half-life [5]: > 145 min
- pIC50 (EMT6): < 4.00
- pIC50 [3]: < 5.00
- remaining at 1 h, 10 µM [6]: 90%
- inhibition at 20 µM (CYP2B6): 68%
- pIC50 [4]: < 5.00
- inhibition at 20 µM (CYP2C9): 24%
- inhibition at 20 µM (CYP2E1): 26%
- microsomal CLint [7]: < 9.6 µL/min/mg
- IC50 at 72 h [8]: > 100000 nM
- pIC50 [9]: 6.47
- pIC50 [1]: 8.68
- inhibition at 20 µM (CYP1A2): 69%
- microsomal CLint [10]: < 9.6 µL/min/mg
- pIC50 (3LL cell line): < 4.00
- remaining at 1 h, 10 µM [11]: 87.9%
- inhibition at 20 µM (CYP2D6): 62%
- half-life [12]: > 145 min

Structure (SMILES): COc1cccc(C#Cc2sc3c(c2C(=O)N[C@@H](C)c2ccc(C(=O)O)cc2)CCOC3)c1
- pIC50 [1]: 7.91

Structure (SMILES): C[C@H](NC(=O)c1c(Cc2ccc(F)cc2)sc2c1CCOC2)c1ccc(C(=O)NN)cc1
- pIC50 [1]: 7.13

Structure (SMILES): O=C(O)c1ccc(C2(NC(=O)c3c(Cc4cccc(C(F)(F)F)c4)sc4c3CCOC4)CC2)cc1
- pIC50 [1]: 9.00

Structure (SMILES): COc1ccc(Cc2sc3c(c2C(=O)N[C@@H](C)c2ccc(C(=O)O)cc2)CCOC3)cc1F
- pIC50 [2]: < 5.00
- pIC50 [3]: < 5.00
- pIC50 [4]: < 5.00
